Reference: PubChem BioAssay AID493077 (The Scripps Research Institute Molecular Screening Center, 2011)
Active and inactive are the calls of the source.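 Rule for the calls: active = Zta binding inhibitor with IC50 at or below 10 µM; inactive = IC50 above 10 µM.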

What follows are molecules tested against Lytic switch protein BZLF1 (Epstein-Barr virus (strain B95-8)) (UniProt P03206) (assay: Zta-ZRE interaction blockers, IC50 testing – biochemical, fluorescence polarization, dose response, assay provider, counter-screen for EBNA-1 inhibitor project, late-stage follow-up (AID 493077)). Details: purified Zta, Cy5-ZRE DNA.
Lytic switch protein BZLF1 (Epstein-Barr virus (strain B95-8)), sequence (P03206 whole entry, looked up): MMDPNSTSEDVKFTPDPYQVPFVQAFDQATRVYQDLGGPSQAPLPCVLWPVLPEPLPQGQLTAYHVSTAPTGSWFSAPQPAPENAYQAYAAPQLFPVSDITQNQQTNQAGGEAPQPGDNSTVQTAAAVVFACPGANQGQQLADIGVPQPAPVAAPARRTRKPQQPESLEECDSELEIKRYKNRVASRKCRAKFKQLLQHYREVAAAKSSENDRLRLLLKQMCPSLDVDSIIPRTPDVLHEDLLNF

SMILES | IC50
O=C(CSc1nnnn1-c1ccccc1)c1ccn(CC2CCCO2)c1 (stereo not given) | > 111 µM (inactive)
Cc1ccc(-n2nnnc2SCC(=O)c2cc(C)n(CC3CCCO3)c2C)cc1 (stereo not given) | > 111 µM (inactive)
COCCn1c(C)cc(C(=O)CSc2nnnn2-c2ccccc2)c1C | > 111 µM (inactive)
Cc1cc(C(=O)CSc2nnnn2C)c(C)n1CC1CCCO1 (stereo not given) | > 111 µM (inactive)
CS(=O)(=O)c1ccc2nc(NC(=O)c3ccc(Cl)cc3)sc2c1 | > 111 µM (inactive)
COc1ccc(C(=O)Nc2nc3ccc(S(C)(=O)=O)cc3s2)cc1 | > 111 µM (inactive)
CS(=O)(=O)c1ccc2nc(NC(=O)c3cccc(F)c3)sc2c1 | > 111 µM (inactive)
CCn1c(C)cc(C(=O)CSc2nnnn2-c2ccccc2)c1C | > 111 µM (inactive)
Cc1cc(C(=O)CSc2nnnn2-c2ccccc2)c(C)n1C | > 111 µM (inactive)
Cc1cccc(-n2nnnc2SCC(=O)c2cc(C)n(CC3CCCO3)c2C)c1 (stereo not given) | > 111 µM (inactive)
COc1cccc(C(=O)Nc2nc3ccc(S(C)(=O)=O)cc3s2)c1 | > 111 µM (inactive)
COc1cccc2sc(NC(=O)c3ccc(C)c(C)c3)nc12 | > 111 µM (inactive)
Cc1cccc(C(=O)Nc2nc3ccc(S(C)(=O)=O)cc3s2)c1 | > 111 µM (inactive)
CS(=O)(=O)c1ccc2nc(NC(=O)c3cccc(Cl)c3)sc2c1 | > 111 µM (inactive)
Cc1cc(C(=O)CSc2nnnn2C2CC2)c(C)n1CC1CCCO1 (stereo not given) | > 111 µM (inactive)
Cc1ccc(C(=O)Nc2nc3ccc(S(C)(=O)=O)cc3s2)cc1 | > 111 µM (inactive)
COc1ccc2nc(NC(=O)c3ccc(C)c(C)c3)sc2c1 | > 111 µM (inactive)
CS(=O)(=O)c1ccc2nc(NC(=O)c3ccccc3F)sc2c1 | > 111 µM (inactive)
Cc1ccc(C(=O)Nc2nc3cc(F)ccc3s2)cc1C | > 111 µM (inactive)
Cc1ccc(C(=O)Nc2nc3cc(Br)ccc3s2)cc1C | > 111 µM (inactive)
COc1ccc(-n2nnnc2SCC(=O)c2cc(C)n(CC3CCCO3)c2C)cc1 (stereo not given) | > 111 µM (inactive)
COc1ccccc1C(=O)Nc1nc2ccc(S(C)(=O)=O)cc2s1 | > 111 µM (inactive)
Cc1cc(C(=O)CSc2nnnn2-c2ccc(Cl)cc2)c(C)n1CC1CCCO1 (stereo not given) | > 111 µM (inactive)
Cc1ccccc1C(=O)Nc1nc2ccc(S(C)(=O)=O)cc2s1 | > 111 µM (inactive)
Cc1ccc(C(=O)Nc2nc3ccc(Br)cc3s2)cc1C | > 111 µM (inactive)
COc1ccc2sc(NC(=O)c3ccc(C)c(C)c3)nc2c1 | > 111 µM (inactive)
Cc1ccccc1-n1nnnc1SCC(=O)c1cc(C)n(CC2CCCO2)c1C (stereo not given) | > 111 µM (inactive)
CS(=O)(=O)c1ccc2nc(NC(=O)c3ccccc3Cl)sc2c1 | > 111 µM (inactive)
Cc1cc(C(=O)CSc2nnnn2-c2cccc(F)c2)c(C)n1CC1CCCO1 (stereo not given) | > 111 µM (inactive)
Cc1cc(C(=O)CSc2nnnn2-c2ccccc2)c(C)n1Cc1cccs1 | > 111 µM (inactive)
